Experiment [1] deals with HL-60 (promyelocytic leukemia). Description: MTT reduction cytotoxicity assay, HL-60. The experiment is classed as cell-based. The settings on record: Homo sapiens, HL-60, MTT, 72 h incubation. Here is the method: (§1) The human tumor cell lines used were HL-60 (promyelocytic leukemia), MCF-7 (breast adenocarcinoma) and NCI-H292 (lung carcinoma). The cells were obtained from Rio de Janeiro Cell Bank (RJ, Brazil). Cancer cells were maintained in RPMI 1640 medium or DMEN supplemented with 10% fetal bovine serum, 2 mM glutamine, 100 U/mL penicillin, 100 μg/mL streptomycin at 37° C. with 5% CO2. Cytotoxicity of (6R)-6-[(2Z)-pent-2-enyl]-5,6-dihydro-2H-pyran-2-one [(R)-(−)-Tuberolactone] against the three tumor cell lines was assessed using the 3-(4,5-dimethyl-2-thiazolyl)-2,5-diphenyl-2H tetrazolium bromide (MTT) (Sigma Aldrich Co., St. Louis, Mo., USA) reduction assay. Tumor cells were plated in 96-well plates (10^5 cells/mL for adherent cells or 3×10^5 cells/mL for Leukemia). (6R)-6-[(2Z)-pent-2-enyl]-5,6-dihydro-2H-pyran-2-one [(R)-(−)-Tuberolactone] in DMSO (0.3-25 μg/mL) were added to each well and incubated for 72 h. Control groups received the same amount of DMSO. After 69 h of treatment, 25 μL of MTT (5 mg/mL) was added. Three hours later, the MTT formazan product was dissolved in 100 μL of DMSO. Absorbance was measured at 595 nm in plate spectrophotometer (Varioskan Flash, Thermo Scientific). […] IC50 values and their 95% confidence intervals for two different experiments were obtained by non linear regression using Graphpad Prism version 5.0 for Windows (GraphPad Software, San Diego, Calif., USA).
On the technique in general: Tetrazolium dyes change colour on reduction, which living cells bring about.

For experiment [2], the system named is NCI-H292 (lung carcinoma). Description: MTT reduction cytotoxicity assay, NCI-H292. The experiment is classed as cell-based. The conditions noted are these: Homo sapiens, 72 h incubation. Here is the method:
as §1

The next experiment relates to S. lutea. Briefly: Paper disk diffusion antibacterial test, S. lutea. The format is cell-based, Sarcina lutea. The settings on record: gram-(+) strain, 24 h at 28° C. Here is the method:
(§2) 235 mg alkaloids were extracted from 750 g leaves from the plant, Gaultheria procumbens (also called American wintergreen, teaberry, or boxberry). Fractionation of the crude extract was guided by antimicrobial activity against several gram-(+) and gram-(−) strains: Enterobacter aerogenes (Gram-negative rods), Bacillus cereus (Gram-positive rods), and Sarcina lutea (Gram-positive […]), using the paper disk diffusion method (Barry, A. L.; Thornsbery, C. Identification for Clinical Microbiology, 4th ed.; Washington, D.C., 1985; p 978) supplied within the Science Kit & Boreal Laboratories Antibiotic Effects Kit. The SK Antibiotics Effect Kit uses “Easygel” instead of agar dishes. Each paper disk (6 mm) containing approximately 100 μg of the extract was placed directly onto an Easygel plate, which had been freshly inoculated with either a gram-(+) or (−) strain. In addition, a standard antibiotic disk (30 μg of either penicillin, tetracycline, or chloramphenicol supplied within Science Kit & Boreal Laboratories Antibiotic Effects Kit) as well as a blank disk (with only solvent) were placed on the freshly inoculated Easygel plate. […] 45 mg (6R)-6-[(2Z)-pent-2-enyl]-5,6-dihydro-2H-pyran-2-one [(R)-(−)-Tuberolactone] were isolated (MW. 166.0989 g/mol). […]
(In general: In agar diffusion tests the substance spreads into inoculated agar from a disc or well.)

For another experiment, the system named is E. aerogenes. Description: Paper disk diffusion antibacterial test, E. aerogenes. The experiment is classed as cell-based, Enterobacter aerogenes. The settings on record: gram-(−) strain, 24 h at 28° C. How it is done: as §2
The test system of experiment [3] is MCF-7 (breast adenocarcinoma). Briefly: MTT reduction cytotoxicity assay, MCF-7. The settings on record: Homo sapiens, MCF7, MCF-7, MTT, 72 h incubation. The format is cell-based. How it is done: as §1
In another experiment the test system is B. cereus. Briefly: Paper disk diffusion antibacterial test, B. cereus. The format is cell-based, Bacillus cereus. The conditions noted are these: gram-(+) strain, 24 h at 28° C. Here is the method:
as §2

The IC50 is the point on the concentration scale where inhibition reaches its midpoint.

Structures are written as SMILES.

In the case of `COc1cccc2c1C(=O)c1c(O)c3c(c(O)c1C2=O)C[C@@](O)(C(=O)CO)C[C@@H]3O[C@H]1C[C@H](N)[C@H](O)[C@H](C)O1` [Doxorubicin, reference compound], the IC50 was determined as 0.02 µg/mL in experiment [1] (two experiments), 0.2 µg/mL in experiment [2] (two experiments) and 0.36 µM in experiment [2] (value in parentheses).

In the case of `CC/C=C\C[C@@H]1CC=CC(=O)O1` [Tuberolactone, (6R)-6-[(2Z)-pent-2-enyl]-5,6-dihydro-2H-pyran-2-one], in the experiment on S. lutea, the “antibacterial activity against S. lutea” value was “confirmed”. The IC50 was found to be 4.4 µg/mL in experiment [1] (two experiments); 26 µM in experiment [1] (value in parentheses); 6.4 µg/mL in experiment [3] (two experiments); 38.5 µM in experiment [3] (value in parentheses); 5.9 µg/mL in experiment [2] (two experiments); 35.5 µM in experiment [2] (value in parentheses). Also, the “antibacterial activity against E. aerogenes” value in the experiment with E. aerogenes is “confirmed”. Moreover, in the experiment with B. cereus, the “antibacterial activity against B. cereus” value was “confirmed”.

These data come from patent US10149830B2, “Pharmaceutical agents and methods relating thereto” (Cushing Academy, priority 2016, dated 2018).
